Assay results from USRE38257E1, “Piperdine derivatives and hypotensives containing the same” (Ajinomoto Co., Inc., priority 1988, dated 2003).

Tested on: male spontaneously hypertensive rats
Assay: Decrease in systolic blood pressure in spontaneously hypertensive rats after intravenous bolus injection, indirect (tail-cuff) method
Type: in vivo, rat
Conditions: for Decrease in systolic blood pressure (mmHg) time after administration (hour) 0.5: 0.5 hour after administration; for Decrease in systolic blood pressure (mmHg) time after administration (hour) 4: 4 hours after administration
Protocol: As test animals, four male spontaneously hypertensive rats (weight 400 to 440 g) that were sufficiently adapted for feeding and in which hypertension was confirmed were used.
Physiological saline aqueous solution containing 2.5% Nicolle and 2.5% ethanol of sample was intravenously administered by bolus injection at a dose of 1 ml per 1 kg of body weight. Systolic blood pressure after administration was measured by the indirect (tail-cuff) method.

Compound	Decrease in systolic blood pressure (mmHg) time after administration (hour) 0.5 (dose 10 mg/kg i.v. bolus) [mmHg]	Decrease in systolic blood pressure (mmHg) time after administration (hour) 4 (dose 10 mg/kg i.v. bolus) [mmHg]	Decrease in systolic blood pressure (mmHg) time after administration (hour) 0.5 (dose 3 mg/kg i.v. bolus) [mmHg]	Decrease in systolic blood pressure (mmHg) time after administration (hour) 4 (dose 3 mg/kg i.v. bolus) [mmHg]
Cl.O=C1CCCCN1CCCCN1CCC(=C2c3ccccc3C=Cc3ccccc32)CC1 [Example 268, N-(4-(4-(5H-Dibenzo[a,d]cyclohepten-5-ylidene)-1-piperidinyl)-1-butyl)-2-piperidone hydrochloride]	−29	13		
COc1ccc2c(c1OC)CCC(CCN1CCC(=C3c4ccccc4C=Cc4ccccc43)CC1)C2.Cl (stereo not shown) [Example 318, 2-(3-(4-(5H-Dibenzo[a,d]cyclohepten-5-ylidene)-1-piperidinyl)-1-ethyl)-5,6-dimethoxy-1,2,34-tetrahydronaphthalene hydrochloride]	−83	−57		
Cl.O=C(NCCN1CCCCC1=C1c2ccccc2C=Cc2ccccc21)C1CCCCC1 [Example 243, N-(2-(5H-Dibenzo[a,d]cyclohepten-5-ylidene)-1-piperidinyl)ethyl cyclohexanecarboxamide hydrochloride]	−111	−31		
Cl.O=C(CCCN1CCC(=C2c3ccccc3C=Cc3ccccc32)CC1)N1CCOCC1 [Example 245, 1-(4-(4-(5H-Dibenzo[a,d]cyclohepten-5-ylidene)-1-piperidinyl)butanoyl)morpholine hydrochloride]	−34	−10		
Cl.Fc1ccc(C=CCN2CCC(=C3c4ccccc4C=Cc4ccccc43)CC2)cc1 [Example 353]	−147	−138		
Cl.O=C(NCCN1CCCCC1=C1c2ccccc2C=Cc2ccccc21)c1ccccc1[N+](=O)[O-] [Example 291, N-(2-(5H-Dibenzo[a,d]cyclohepten-5-ylidene)-1-piperidinyl)ethyl-2-nitrobenzamide hydrochloride]			−8	15
C1=Cc2ccccc2C(=C2CCN(CCCCC3CCOCC3)CC2)c2ccccc21.Cl [Example 305, 4-(4-(4-(5H-Dibenzo[a,d]cyclohepten-5-ylidene)-1-piperidinyl)-1-butyl)tetrahydropyran hydrochloride]	−95	−9		
COc1cc(C=CCN2CCC(=C3c4ccccc4C=Cc4ccccc43)CC2)cc(OC)c1.Cl [Example 345, 4-(5H-Dibenzo[a,d]cyclohepten-5-ylidene)-1-(3,5-dimethoxycinnamyl)piperidine hydrochloride]			−120	−95
C1=Cc2ccccc2C(=C2CCN(CCCCCCCC3CCCCC3)CC2)c2ccccc21.Cl [Example 155, 1-Cyclohexyl-7-(4-(5H-dibenzo[a,d]cyclohepten-5-ylidene)-1-piperidinyl)heptane hydrochloride]	−131	−105		
Cl.c1ccc2c(c1)Sc1ccccc1C2=C1CCN(CCCCC2CCCCC2)CC1 [Example 182]	−11	−6		
COc1cc(C=CCN2CCC(=C3c4ccccc4C=Cc4ccccc43)CC2)cc(OC)c1OC.Cl [Example 320, 4-(5H-Dibenzo[a,d]cyclohepten-5-ylidene)-1-(3,4,5-trimethoxycinnamyl)piperdine hydrochloride]	−147	−113		
CCCC(=O)Nc1ccc(C=CCN2CCC(=C3c4ccccc4C=Cc4ccccc43)CC2)cc1.Cl [Example 381, 1-(4-Butanoylaminocinnamyl)-4-(5H-Dibenzo[a,d]cyclohepten-5-ylidene)piperidine hydrochloride]			−136	
C1=Cc2ccccc2C(=C2CCN(CCC3Cc4ccccc4C3)CC2)c2ccccc21.Cl [Example 310, 2-(2-(4-(5H-Dibenzo[a,d]cyclohepten-5-ylidene)-1-piperidinyl)-1-ethyl)indane hydrochloride]	−90	−18		
Cl.Oc1cccc(C=CCN2CCC(=C3c4ccccc4C=Cc4ccccc43)CC2)c1 [Example 367, 4-(5H-Dibenzo[a,d]cyclohepten-5-ylidene)-1-(3-hydroxycinnamyl)piperidine hydrochloride]	−98	−63		
Cl.O=[N+]([O-])c1ccccc1S(=O)(=O)NCCN1CCC(=C2c3ccccc3C=Cc3ccccc32)CC1 [Example 25, 4-(5H-Dibenzo[a,d]cyclohepten-5-ylidene)-1-(2-(2-nitrobenzenesulfonyl)aminoethyl)piperidine hydrochloride]	−8	−7		
Cl.Clc1cccc(CN2CCC(=C3c4ccccc4C=Cc4ccccc43)CC2)c1 [Example 129, 1-(3-Chlorobenzyl)-4-(5H-Dibenzo[a,d]cyclohepten-5-ylidene)piperidine hydrochloride]	−17	−1		
Cl.FC(F)(F)c1cccc(CN2CCC(=C3c4ccccc4C=Cc4ccccc43)CC2)c1 [Example 115, 4-(5H-Dibenzo[a,d]cyclohepten-5-ylidene)-1-(3-trifluoromethylbenzyl)piperidine hydrochloride]	−53	−19		
C1=Cc2ccccc2C(=C2CCN(Cc3ccccc3)CC2)c2ccccc21.Cl [Example 12, 1-Benzyl-4-(5H-dibenzo[a,d]cyclohepten-5-ylidene)piperidine hydrochloride]	−27	1		
Cl.N#CC(CCCCl)(CCCN1CCC(=C2c3ccccc3C=Cc3ccccc32)CC1)c1ccccc1 (stereo not shown) [Example 52, 2-(3-Chloropropyl)-5-(4-(5H-dibenzo[a,d]cyclohepten-5-ylidene)-1-piperidinyl)-2-phenylvaleronitrile hydrochloride]	−23	−9		
Cl.O=[N+]([O-])c1ccccc1C=CCN1CCC(=C2c3ccccc3C=Cc3ccccc32)CC1 [Example 230, 4-(5H-Dibenzo[a,d]cyclohepten-5-ylidene)-1-(2-nitrocinnamyl)piperidine hydrochloride]			−131	−91
COc1ccc(C(=O)NCCN2CCCCC2=C2c3ccccc3C=Cc3ccccc32)c(OC)c1.Cl [Example 292, N-(2-(5H-Dibenzo[a,d]cyclohepten-5-ylidene)-1-piperidinyl)ethyl-2,4-dimethoxybenzamide hydrochloride]			−31	3
O=C(Cc1ccc(F)cc1)N1CCC(=C2c3ccccc3C=Cc3ccccc32)CC1 [Example 191, 4-(5H-Dibenzo[a,d]cyclohepten-5-ylidene)-1-(2-(4-fluorophenyl)acetyl)piperidine]	−29	−20		
CCCCCCCCCCN1CCC(=C2c3ccccc3C=Cc3ccccc32)CC1.Cl [Example 3, 1-Decyl-4-(5H-dibenzo[a,d]cyclohepten-5-ylidene)piperidine hydrochloride]			−110	−22
C1=Cc2ccccc2C(=C2CCN(CCCCCCC3CCCCC3)CC2)c2ccccc21.Cl [Example 154, 1-Cyclohexyl-6-(4-(5H-dibenzo[a,d]cyclohepten-5-ylidene)-1-piperidinyl)hexane hydrochloride]	−131	−105		
CCC(C#N)(CCCN1CCC(=C2c3ccccc3C=Cc3ccccc32)CC1)c1cccc(C(F)(F)F)c1.Cl (stereo not shown) [Example 149, 5-(4-(5H-Dibenzo[a,d]cyclohepten-5-ylidene)-1-piperidinyl)-2-ethyl-2-(3-trifluoromethylphenyl)valeronitrile hydrochloride]	−116	−32		
Cl.O=C1Cc2ccccc2C(=C2CCN(CCCCC3CCCCC3)CC2)c2ccsc21 [Example 180]	−25	−24		
C1=Cc2ccccc2C(=C2CCN(Cc3cccc4ccccc34)CC2)c2ccccc21.Cl [Example 214, 4-(5H-Dibenzo[a,d]cyclohepten-5-ylidene)-1-(1-naphthylmethyl)piperidine hydrochloride]	−126	−21		
CCCCCCCN1CCC(=C2c3ccccc3C=Cc3ccccc32)CC1.Cl [Example 134, 4-(5H-Dibenzo[a,d]cyclohepten-5-ylidene)-1-heptylpiperidine hydrochloride]	−115	−30		
